Columns and labels:
NUTOS cells = assay: Incorporation of serotonin into NUTOS cells (culture medium level, anti-serotonin antibody immunostaining); assay type: cell-based, human; conditions: serotonin in fetal bovine serum added to culture medium
Procedure: When fetal bovine serum containing serotonin was added to a culture medium containing this NUTOS cell line, the amount of serotonin in the culture medium was decreased. […] The detailed mechanism of this incorporation has not been elucidated yet, and also the role of serotonin incorporated therein has not been elucidated yet.

[1] = system: rhabdomyosarcoma cell line (HUMENS); assay: Survival rate of confluent HUMENS cells 15 hours after adding anticancer agent (trypan blue count); assay type: cell-based; conditions: FIG. 2
Procedure: 1. Cells were plated on a plate and cultured to a confluent state using a DMEM/F12 culture medium supplemented with 15% fetal bovine serum.
2. The culture medium was removed and replaced with a serum-free DMEM/F12 culture medium supplemented with a given amount of an anticancer agent, and the cells were cultured for 15 hours.
3. The culture medium was removed, and the cells were washed with Hanks' solution and detached with trypsin. The detached cells were transferred to a tube and centrifuged.
4. The supernatant was removed, and the cells were suspended in a given amount of a culture medium.
5. An aliquot of the cell suspension was taken and the same amount of trypan blue was added thereto. Then, the cells were counted using a hemocytometer.
The percentage of incorporation of a dye was counted 15 hours after adding an anticancer agent (s-PTX, s-CDDP, s-CBDCA, s-ADM, or s-CPA (all of which are in Example 8), PTX, CDDP, CBDCA, ADM, or CPA (all of which are in Comparative Example 2)) to confluent cells (HUMENS) in the same manner as in Example 7 or Comparative Example 1, except that a rhabdomyosarcoma cell line (HUMENS) established from alveolar rhabdomyosarcoma obtained from the mammary gland was used as the cells in place of NUTOS.

[2] = system: rhabdomyosarcoma cell line (NUTOS); assay: Survival rate of confluent NUTOS cells 15 hours after adding anticancer agent (trypan blue count); assay type: cell-based, human; conditions: serum-free DMEM/F12, 15 hours, n=5, FIG. 1
Procedure: A rhabdomyosarcoma cell line (NUTOS) established from alveolar rhabdomyosarcoma developed in the tongue of a child was used. […] In FIG. 1, the horizontal axis represents the concentration (ng/ml) of the added anticancer agent and the longitudinal axis represents the survival rate (%) of the cells after 15 hours (n=5). 1. Cells were plated on a plate and cultured to a confluent state using a DMEM/F12 culture medium supplemented with 15% fetal bovine serum. 2. The culture medium was removed and replaced with a serum-free DMEM/F12 culture medium supplemented with a given amount of an anticancer agent, and the cells were cultured for 15 hours. 3. The culture medium was removed, and the cells were washed with Hanks' solution and detached with trypsin. The detached cells were transferred to a tube and centrifuged. 4. The supernatant was removed, and the cells were suspended in a given amount of a culture medium. 5. An aliquot of the cell suspension was taken and the same amount of trypan blue was added thereto. Then, the cells were counted using a hemocytometer.

SMILES	incorporation into NUTOS cells (NUTOS cells)	anticancer effect (survival rate of the cells after 15 hours) [1]	anticancer effect (survival rate of the cells after 15 hours) [2]
NCCc1c[nH]c2ccc(O)cc12 [serotonin]	specifically incorporated into the NUTOS cells		
COc1cccc2c1C(=O)c1c(O)c3c(c(O)c1C2=O)C[C@@](O)(C(=O)CO)C[C@@H]3O[C@H]1C[C@H](N)[C@H](O)[C@H](C)O1.Cl [ADM, adriamycin]		only a slight anticancer effect	only a slight anticancer effect
N.N.O=C([O-])C1(C(=O)[O-])CCC1.[Pt+2] [CBDCA, carboplatin]		exhibited an anticancer effect by itself	exhibited an anticancer effect by itself
CC(=O)O[C@H]1C(=O)[C@@]2(C)[C@H]([C@H](OC(=O)c3ccccc3)[C@]3(O)C[C@H](OC(=O)[C@H](O)[C@@H](NC(=O)c4ccccc4)c4ccccc4)C(C)=C1C3(C)C)[C@]1(OC(C)=O)CO[C@@H]1C[C@@H]2O [PTX, paclitaxel]		exhibited an anticancer effect by itself	exhibited an anticancer effect by itself
[NH2][Pt]([NH2])([Cl])[Cl] [CDDP, cisplatin]		exhibited an anticancer effect by itself	exhibited an anticancer effect by itself
O=P1(N(CCCl)CCCl)NCCCO1 (centres unmarked) [CPA, cyclophosphamide]		exhibited an anticancer effect by itself	only a slight anticancer effect
